Assay results published in patent US11730746B2, “17beta-heterocyclyl-digitalis like compounds for the treatment of heart failure” (priority 2018, dated 2023).
Several values for one entry are separate records, joined by “and”; a condition that tells them apart may be missing. Equal entries are not always repeated.

Columns and labels:
Peptidase, Renin = biological target: T1, Peptidase, Renin (Homo sapiens, UniProt P00797); assay: Eurofins panel 164610; assay type: biochemical
T1 construct: Eurofins 164610

[1] = Acute toxicity (LD50) in mouse; conditions: Albino Swiss CD-1, in vivo, single administration
Protocol: 194. Acute toxicity has been determined in the mouse (Albino Swiss CD-1, body weight 30 g). Mice were orally treated, or intravenously injected, with single administration of increasing doses of the test substance to identify the dose causing 50% mortality. Mortality occurred within 30 min after the administration and survival after 24 h. The acute toxicity (LD50) was then assessed.
The acute toxicity of the tested compound CVie 101 has been determined in the mouse (Albino Swiss CD-1, body weight 30 g). CVie 101 has been orally administered or intravenously injected at increasing doses to identify the dose causing 50% mortality. Mortality occurred within 30 min after the administration and survival after 24 h.

Adenosine A1 = biological target: T2, Adenosine A1 (Homo sapiens, UniProt P30542); assay: Receptor binding 200510
T2 construct: Eurofins 200510; host or cells: crude membrane preparation
Protocol: (§1) Radioligand binding to a panel of receptors was carried out by Eurofins on crude membrane preparations according to published procedures and by using appropriate reference standard (Eurofins, CVie 101 compound code PT #1207859, study #AB76416, quote #68407-1, for Cvie Therapeutics Limited, Taiwan (R.OC.) on Mar. 5, 2017). CVie 101 was tested at the concentration of 10 μM. No significant interaction was documented, except for Sodium Channel, site 2 from rat (cat #279510), where a significant response (≥50%) was noted (Table 7).

Adrenergic α2A = biological target: T3, Adrenergic α2A (Homo sapiens, UniProt P08913); assay: Receptor binding 203630
T3 construct: Eurofins 203630; host or cells: crude membrane preparation
Protocol: as §1

Adrenergic β2 = biological target: T4, Adrenergic β2 (Homo sapiens, UniProt P07550); assay: Receptor binding 204110
T4 construct: Eurofins 204110; host or cells: crude membrane preparation
Protocol: as §1

Adrenergic β1 = biological target: T5, Adrenergic β1 (Homo sapiens, UniProt P08588); assay: Receptor binding 204010
T5 construct: Eurofins 204010; host or cells: crude membrane preparation
Protocol: as §1

hERG potassium channel = biological target: T6, hERG potassium channel (Homo sapiens, UniProt Q12809); assay: Receptor binding 265900; conditions: crude membrane preparations
T6 construct: Eurofins (contract assay) 265900
Protocol: as §1

[2] = system: guinea pig isolated cardiomyocytes; assay: SR Ca2+ uptake function (loading protocol) in isolated ventricular cardiomyocytes; assay type: cell-based; conditions: 100 nM
Protocol: The compounds were characterized for their effect on (i) SR Ca^2+ uptake function, (ii) action potential (AP) in myocytes freshly dissociated from guinea-pig ventricles by retrograde coronary perfusion with enzymatic solution (Rocchetti M et al. J Pharmacol Exper Therap 2005; 313(1):207-215).
Drug effects on SR Ca^2+ uptake rate were evaluated with an SR “loading protocol” specifically devised to rule out the contribution of the Na/Ca exchanger (NCX) and to assess the uptake rate starting at low levels of SR Ca^2+ loading. Under voltage-clamp conditions, intracellular Ca^2+ concentration was dynamically measured by epifluorescence (Fluo4-AM). Membrane current, whose time-dependent component mainly reflected ICaL, was simultaneously recorded. The SR loading protocol consisted in emptying the SR (by a brief caffeine pulse) and then progressively refilling it by voltage steps activating Ca^2+ influx through the sarcolemmal Ca^2+ channel (ICaL). NCX was blocked by omission of Na^+ from intracellular and extracellular solutions. The procedure is in agreement with published methods, with minor modifications (Rocchetti M et al. J Pharmacol Exper Therap 2005; 313(1):207-215).
Drug effects on SR Ca^2+ uptake were analysed by considering multiple parameters: 1) the rate at which Ca^2+ transient (CaT) amplitude increased during the loading protocol, which reflects the rate at which the SR refilled and 2) the time constant of cytosolic Ca^2+ decay (Tdecay) within each pulse, reflecting net Ca^2+ transport rate (by SERCA2a) across the SR membrane (a decrease in Tdecay corresponds to enhanced SR Ca^2+ uptake).

Dopamine D3 = biological target: T7, Dopamine D3 (Homo sapiens, UniProt P35462); assay: Receptor binding 219800
T7 construct: Eurofins 219800; host or cells: crude membrane preparation
Protocol: as §1

Glucocorticoid = biological target: T8, Glucocorticoid (Homo sapiens, UniProt P04150); assay: Receptor binding 232030
T8 construct: Eurofins (contract assay) 232030
Protocol: as §1

guinea pig = assay: Haemodynamics: inotropic and lethal dose in guinea pig; assay type: in vivo; conditions: for E max % increase in dP/dtmax: 90 min; for ED max: cumulative dose
Protocol: Guinea-pigs (400-450 g) were anaesthetized with urethane (1.5 g/kg ip). A microtip pressure transducer was introduced into the left ventricle through the right carotid artery to measure ventricular pressure (LVP); the transducer was coupled with a transducer amplifier. Recordings were fed to a polygraph and analyzed. A polythene cannula was inserted into a jugular vein for drug infusion. After a stabilization period, the test substance was injected at the rate of 0.16 ml/min for 90 min (Micheletti R et al. J Pharmacol Exp Ther 2002; 303:592-600).
The following parameters were obtained: heart rate (HR), left ventricular pressure (LVP), maximal velocity of pressure rise (+dP/dtmax) and decay (−dP/dtmax), ECG. For inotropy, the time elapsed until +dP/dtmax increased by 80% was identified in order to determine the ED80 (dose increasing basal +dP/dtmax by 80%). The time to the maximum increase in +dP/dtmax was also identified to determine the maximum effective dose, EDmax. Lusitropy was characterized by the dose inducing the maximum decrease in −dP/dtmax, (EDmax). As indexes of toxicity, the dose administered until the onset of arrhythmias and the dose inducing death (LD) were calculated. The safety ratio for the tested compound was also calculated as the ratio between LD and ED80.

Histamine H1 = biological target: T9, Histamine H1 (Homo sapiens, UniProt P35367); assay: Receptor binding 239610
T9 construct: Eurofins (contract assay) 239610
Protocol: as §1

[3] = system: ATPase, Ca++, skeletal muscle, pig; assay: Eurofins panel 107480; assay type: biochemical; conditions: 10 μM
HMG-CoA Reductase = biological target: T10, HMG-CoA Reductase (Homo sapiens, UniProt P04035); assay: Eurofins panel 124010; assay type: biochemical
T10 construct: Eurofins 124010

Adrenergic α1B = biological target: T11, Adrenergic α1B (Rattus norvegicus, UniProt P15823); assay: Receptor binding 203200
T11 construct: Eurofins 203200; host or cells: crude membrane preparation
Protocol: as §1

[4] = system: Serotonin (5-Hydroxytryptamine) 5-HT1, non selective; assay: Receptor binding 271010; set-up: species or system rat; conditions: 10 μM
Protocol: as §1

T9 sequence (P35367 whole entry): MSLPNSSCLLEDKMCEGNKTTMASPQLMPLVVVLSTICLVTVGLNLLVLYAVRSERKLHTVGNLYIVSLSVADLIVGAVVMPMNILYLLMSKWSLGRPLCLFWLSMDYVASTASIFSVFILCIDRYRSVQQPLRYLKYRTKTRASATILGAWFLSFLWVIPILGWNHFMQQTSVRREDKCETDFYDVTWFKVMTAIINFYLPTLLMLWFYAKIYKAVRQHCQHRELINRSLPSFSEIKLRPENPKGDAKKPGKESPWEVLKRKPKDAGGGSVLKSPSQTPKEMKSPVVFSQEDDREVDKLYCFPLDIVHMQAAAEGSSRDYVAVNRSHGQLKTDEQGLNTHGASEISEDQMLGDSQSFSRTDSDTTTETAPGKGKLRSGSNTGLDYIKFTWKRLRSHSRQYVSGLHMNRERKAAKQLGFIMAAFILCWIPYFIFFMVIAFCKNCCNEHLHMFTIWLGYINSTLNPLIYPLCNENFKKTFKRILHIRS
T10 sequence (P04035 426-888 limits assumed): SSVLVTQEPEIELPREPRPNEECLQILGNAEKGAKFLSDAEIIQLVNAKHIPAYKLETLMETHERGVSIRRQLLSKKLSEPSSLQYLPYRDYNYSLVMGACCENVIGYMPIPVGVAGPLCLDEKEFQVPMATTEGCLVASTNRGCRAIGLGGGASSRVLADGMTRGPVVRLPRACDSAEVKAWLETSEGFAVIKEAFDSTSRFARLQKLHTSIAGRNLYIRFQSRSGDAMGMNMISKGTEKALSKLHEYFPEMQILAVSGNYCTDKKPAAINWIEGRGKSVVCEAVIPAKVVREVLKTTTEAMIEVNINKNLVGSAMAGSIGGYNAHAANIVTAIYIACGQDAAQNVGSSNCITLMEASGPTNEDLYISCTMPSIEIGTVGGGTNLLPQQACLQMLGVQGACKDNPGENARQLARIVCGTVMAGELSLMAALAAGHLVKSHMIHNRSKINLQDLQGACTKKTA
T3 sequence (P08913 whole entry): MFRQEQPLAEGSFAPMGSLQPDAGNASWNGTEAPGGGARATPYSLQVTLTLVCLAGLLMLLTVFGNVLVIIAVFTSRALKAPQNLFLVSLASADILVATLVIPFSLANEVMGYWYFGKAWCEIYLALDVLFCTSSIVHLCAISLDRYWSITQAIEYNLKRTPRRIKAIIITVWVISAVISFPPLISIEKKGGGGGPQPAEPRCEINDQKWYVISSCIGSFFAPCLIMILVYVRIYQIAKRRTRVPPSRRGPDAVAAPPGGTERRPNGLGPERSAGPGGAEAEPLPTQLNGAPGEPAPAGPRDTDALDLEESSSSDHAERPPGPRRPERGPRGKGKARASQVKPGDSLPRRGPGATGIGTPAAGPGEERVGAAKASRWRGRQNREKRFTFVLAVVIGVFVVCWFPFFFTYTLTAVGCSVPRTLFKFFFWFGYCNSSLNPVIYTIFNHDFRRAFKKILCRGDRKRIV
T5 sequence (P08588 whole entry): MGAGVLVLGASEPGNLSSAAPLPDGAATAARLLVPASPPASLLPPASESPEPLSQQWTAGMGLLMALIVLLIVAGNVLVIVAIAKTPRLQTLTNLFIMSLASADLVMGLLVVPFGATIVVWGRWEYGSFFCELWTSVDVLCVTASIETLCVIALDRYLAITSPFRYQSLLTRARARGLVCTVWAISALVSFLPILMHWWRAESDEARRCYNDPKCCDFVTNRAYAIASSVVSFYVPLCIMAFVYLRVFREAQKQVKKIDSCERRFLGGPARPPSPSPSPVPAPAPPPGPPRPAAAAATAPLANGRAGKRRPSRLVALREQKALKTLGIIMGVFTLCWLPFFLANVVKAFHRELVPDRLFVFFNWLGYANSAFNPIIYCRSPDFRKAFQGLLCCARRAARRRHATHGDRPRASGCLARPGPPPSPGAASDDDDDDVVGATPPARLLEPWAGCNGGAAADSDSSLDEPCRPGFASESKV
T6 sequence (Q12809 whole entry): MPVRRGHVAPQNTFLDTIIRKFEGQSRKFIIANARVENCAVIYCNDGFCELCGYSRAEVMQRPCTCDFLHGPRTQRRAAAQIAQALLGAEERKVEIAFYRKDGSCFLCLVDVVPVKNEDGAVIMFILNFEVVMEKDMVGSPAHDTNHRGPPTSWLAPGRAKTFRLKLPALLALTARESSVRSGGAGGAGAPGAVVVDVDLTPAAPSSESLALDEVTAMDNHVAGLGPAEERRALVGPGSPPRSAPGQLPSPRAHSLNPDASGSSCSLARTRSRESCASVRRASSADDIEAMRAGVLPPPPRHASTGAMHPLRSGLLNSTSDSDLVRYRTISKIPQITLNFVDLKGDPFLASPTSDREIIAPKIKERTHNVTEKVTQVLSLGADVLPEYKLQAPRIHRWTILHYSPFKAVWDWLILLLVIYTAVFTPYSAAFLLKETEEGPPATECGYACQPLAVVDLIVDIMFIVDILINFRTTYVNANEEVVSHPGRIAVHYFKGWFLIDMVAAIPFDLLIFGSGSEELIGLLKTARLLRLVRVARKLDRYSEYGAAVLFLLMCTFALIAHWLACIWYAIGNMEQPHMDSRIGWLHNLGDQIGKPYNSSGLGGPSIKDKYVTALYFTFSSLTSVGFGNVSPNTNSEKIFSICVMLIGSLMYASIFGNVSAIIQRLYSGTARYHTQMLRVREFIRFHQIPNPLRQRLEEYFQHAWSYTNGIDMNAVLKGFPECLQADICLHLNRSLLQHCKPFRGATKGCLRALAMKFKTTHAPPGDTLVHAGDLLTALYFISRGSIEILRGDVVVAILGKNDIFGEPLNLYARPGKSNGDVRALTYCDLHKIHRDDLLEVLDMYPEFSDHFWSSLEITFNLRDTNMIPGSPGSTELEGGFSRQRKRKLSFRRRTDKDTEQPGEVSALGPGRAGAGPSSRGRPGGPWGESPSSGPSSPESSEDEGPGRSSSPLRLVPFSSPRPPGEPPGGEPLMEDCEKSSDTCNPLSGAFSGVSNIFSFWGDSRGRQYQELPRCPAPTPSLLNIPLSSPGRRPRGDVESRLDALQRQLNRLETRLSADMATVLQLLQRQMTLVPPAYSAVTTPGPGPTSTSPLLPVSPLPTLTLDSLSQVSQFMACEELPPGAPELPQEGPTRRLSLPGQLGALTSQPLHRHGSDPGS
T11 sequence (P15823 whole entry): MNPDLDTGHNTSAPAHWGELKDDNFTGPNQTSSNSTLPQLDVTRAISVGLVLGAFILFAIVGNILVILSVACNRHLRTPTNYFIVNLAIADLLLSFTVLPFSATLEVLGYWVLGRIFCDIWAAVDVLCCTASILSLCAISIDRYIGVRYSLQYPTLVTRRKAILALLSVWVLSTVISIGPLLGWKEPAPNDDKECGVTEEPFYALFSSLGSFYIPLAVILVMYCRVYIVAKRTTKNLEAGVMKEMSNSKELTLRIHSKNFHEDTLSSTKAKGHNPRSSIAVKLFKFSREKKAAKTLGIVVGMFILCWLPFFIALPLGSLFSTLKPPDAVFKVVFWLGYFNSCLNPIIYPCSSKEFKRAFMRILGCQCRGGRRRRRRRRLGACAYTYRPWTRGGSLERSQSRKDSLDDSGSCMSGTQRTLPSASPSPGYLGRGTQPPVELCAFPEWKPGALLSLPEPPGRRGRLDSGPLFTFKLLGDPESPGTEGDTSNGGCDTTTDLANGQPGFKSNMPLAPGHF
T1 sequence (P00797 67-406): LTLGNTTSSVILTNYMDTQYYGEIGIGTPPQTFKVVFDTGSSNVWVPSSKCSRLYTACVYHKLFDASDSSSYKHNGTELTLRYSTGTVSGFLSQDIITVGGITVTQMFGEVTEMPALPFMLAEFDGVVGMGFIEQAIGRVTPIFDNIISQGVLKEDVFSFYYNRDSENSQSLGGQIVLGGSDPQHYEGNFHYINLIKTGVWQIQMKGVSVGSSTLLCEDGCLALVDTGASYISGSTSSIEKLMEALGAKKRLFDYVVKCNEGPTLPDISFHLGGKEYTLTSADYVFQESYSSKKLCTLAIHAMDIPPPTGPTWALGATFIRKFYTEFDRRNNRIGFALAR
T8 sequence (P04150 whole entry): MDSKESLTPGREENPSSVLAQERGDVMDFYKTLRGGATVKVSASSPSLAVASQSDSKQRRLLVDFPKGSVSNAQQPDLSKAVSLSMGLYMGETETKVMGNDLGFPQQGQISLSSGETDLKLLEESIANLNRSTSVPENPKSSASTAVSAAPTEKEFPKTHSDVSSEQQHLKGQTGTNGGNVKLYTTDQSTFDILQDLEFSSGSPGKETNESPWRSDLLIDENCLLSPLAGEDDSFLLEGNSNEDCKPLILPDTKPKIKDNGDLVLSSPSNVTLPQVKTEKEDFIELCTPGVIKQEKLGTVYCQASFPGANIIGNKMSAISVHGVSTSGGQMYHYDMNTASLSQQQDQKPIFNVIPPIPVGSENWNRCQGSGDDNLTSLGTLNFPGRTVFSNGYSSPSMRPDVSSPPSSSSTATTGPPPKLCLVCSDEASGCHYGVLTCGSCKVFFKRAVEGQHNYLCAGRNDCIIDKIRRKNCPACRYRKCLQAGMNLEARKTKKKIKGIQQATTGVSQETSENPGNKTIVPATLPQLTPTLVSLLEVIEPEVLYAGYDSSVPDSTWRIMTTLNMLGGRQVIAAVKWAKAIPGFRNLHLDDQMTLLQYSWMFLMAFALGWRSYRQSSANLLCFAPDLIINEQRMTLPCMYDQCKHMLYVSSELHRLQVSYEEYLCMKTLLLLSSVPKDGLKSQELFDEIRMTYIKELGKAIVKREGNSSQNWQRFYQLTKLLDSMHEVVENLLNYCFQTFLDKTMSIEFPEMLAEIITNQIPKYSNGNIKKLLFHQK
T2 sequence (P30542 whole entry): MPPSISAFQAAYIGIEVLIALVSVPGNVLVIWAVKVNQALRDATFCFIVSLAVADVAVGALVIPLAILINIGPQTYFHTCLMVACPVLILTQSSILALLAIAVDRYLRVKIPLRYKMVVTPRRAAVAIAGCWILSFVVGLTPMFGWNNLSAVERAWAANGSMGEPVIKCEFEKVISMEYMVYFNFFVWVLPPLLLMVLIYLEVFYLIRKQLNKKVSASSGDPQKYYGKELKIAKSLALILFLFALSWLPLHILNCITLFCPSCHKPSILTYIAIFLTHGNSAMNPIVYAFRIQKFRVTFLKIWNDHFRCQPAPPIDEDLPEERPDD

Question: What does the source list for `C[C@]12CC[C@H](O)C[C@H]1CCC1C2CC[C@]2(C)[C@@H](c3c[nH]cn3)CC[C@]12O` (stereo partly drawn) [CVie 101, 3β-hydroxy-5β-10β-methyl-13β-methyl-14β-hydroxy-17β-(imidazol-4-yl)androstane]?
Answer: inhibition at 10 µM (Peptidase, Renin): 3%; LD50 at 24 h ([1]; iv): 20 mg/kg; LD50 at 24 h ([1]; oral, os): 350 mg/kg; inhibition at 10 µM (Adenosine A1): -4%; inhibition at 10 µM (Adrenergic α2A): -7%; inhibition at 10 µM (Adrenergic β2): 1%; inhibition at 10 µM (Adrenergic β1): -4%; inhibition at 10 µM (hERG potassium channel): 4%; rate of Ca2+ transient (CaT) increment during SR reloading ([2]; FIG. 1A, 1C): increased; time constant of cytosolic Ca2+ decay within each pulse (τdecay) ([2]; FIG. 1B, 1D): decreased; inhibition at 10 µM (Dopamine D3): 7%; inhibition at 10 µM (Glucocorticoid): 10%; Dead/treated number (guinea pig; i.v. infusion 0.2 mg/kg/min): 1/8; ED80 (guinea pig; i.v. infusion 0.2 mg/kg/min): 1.6 mg/kg and 1.60 mg/kg; Lethal dose (guinea pig; i.v. infusion 0.2 mg/kg/min): >18 mg/kg; E max % increase in dP/dtmax (guinea pig; i.v. infusion 0.2 mg/kg/min): 163.6%; ED max (guinea pig; i.v. infusion 0.2 mg/kg/min): 3.73 mg/kg; Dead/treated number (guinea pig; i.v. infusion 0.5 mg/kg/min): 8/8; ED80 (guinea pig; i.v. infusion 0.5 mg/kg/min): 2.74 mg/kg; Lethal dose (guinea pig; i.v. infusion 0.5 mg/kg/min): 28.2 mg/kg; E max % increase in dP/dtmax (guinea pig; i.v. infusion 0.5 mg/kg/min): 216.8%; ED max (guinea pig; i.v. infusion 0.5 mg/kg/min): 5.08 mg/kg; LD/ED80 (guinea pig; i.v. infusion 0.5 mg/kg/min, safety ratio): 11.32; inhibition at 10 µM (Histamine H1): 13%; % inhib [3]: 14%; inhibition at 10 µM (HMG-CoA Reductase): 7%; inhibition at 10 µM (Adrenergic α1B): 0%; % inhib [4]: 7%
